Source: patent US12472166B2, “Inhibition of mycobacterial type VII secretion” (priority 2019, dated 2025)
Where two headings read alike, the source gives them in different places.

Tests used:
M. tuberculosis = test: microbe, parasite or virus in culture; type: cell-based; settings: for IC50: read-out: IC50 (μM) M.tb/REMA; for IC90: read-out: IC90 (μM) M.tb/REMA; for increase of activity as compared to compound I-12: tested on M. tuberculosis
zebrafish embryos = settings: in vivo
M. tuberculosis H37Rv WT = test: THP-1 macrophage infection study, CFU counting; type: cell-based, Mycobacterium tuberculosis; settings: for concentration required to reduce the bacterial load below the initial amount on day 0 / concentration with significant decrease of bacterial load as compared to the DMSO control: THP-1 macrophages, MOI 1, day 5
[1] = human, microsomes, pH 7.4; for Half-life: 15 μM; for Compound remaining (%): 0.5 h
in vitro = settings: human, microsomes, pH 7.4
[2] = system: ESX-5 dependent secretion; type: cell-based
M. marinum = type: cell-based
[3] = system: PE_PGRS and EsxN (ESX-5 dependent secretion); type: cell-based
[4] = system: EsxA (ESX-1 dependent secretion); type: cell-based
M. avium = test: Cell viability assay (REMA), susceptibility of bacterial cultures; type: cell-based; settings: tested up to 80 μM
M. interjectum = test: as above; type: cell-based; settings: tested up to 80 μM
M. kansasii = test: as above; type: cell-based; settings: tested up to 80 μM
M. bovis (BCG) = type: cell-based
[5] = system: fast-growing mycobacteria; test: Cell viability assay (REMA), susceptibility of bacterial cultures; type: cell-based; settings: up to 80 μM
Escherichia coli = test: as above; type: cell-based; settings: highest tested amount (80 μM)
Bacillus subtilis = test: as above; type: cell-based; settings: highest tested amount (80 μM)
[6] = system: M. marinum overexpressing ethA; type: cell-based
[7] = system: M. smegmatis overexpressing ethA; type: cell-based
[8] = Mycobacterium tuberculosis, 168 h
[9] = Mycobacterium tuberculosis, 168 h, replicating M. tuberculosis, seven days, 37° C.
[10] = Mycobacterium tuberculosis, concentration that reduced bacterial viability to lower than 10%

Q: Which results are given for `CCOC(=O)CNC(=O)CSc1nc(-c2ccccc2)ns1` [Compound I-41, reference compound]?
A: IC50 (M. tuberculosis; [8]): 0.269 µM; IC90 (M. tuberculosis; Mycobacterium tuberculosis): 0.63 µM; toxicity (survival of zebra fish embryos scored by heartbeat) (zebrafish embryos): toxic

Q: With `CCCCCNC(=O)CSc1nc(-c2ccc(OC)cc2)ns1` [Compound I-2] as the molecule, how does the IC50 (M. tuberculosis; [9]) read?
A: Its IC50 is 0.098 µM.

Q: And the IC90 (M. tuberculosis; [10])?
A: The IC90 was 0.31 µM.

Q: Which IC50 (M. tuberculosis; [9]) does the source give for `COc1ccc(-c2nsc(SCC(=O)NCc3ccccc3)n2)cc1` [Compound I-30] here?
A: The IC50 was 2.42 µM.

Q: And the IC90 (M. tuberculosis; [10])?
A: Its IC90 is 10 µM.

Q: With `CCCCNC(=O)CSc1nc(-c2ccc(OC)cc2)ns1` [Compound I-14] as the molecule, how does the IC50 (M. tuberculosis; [9]) read?
A: The IC50 was 0.496 µM.

Q: What about the IC90 (M. tuberculosis; [10]) of the same molecule?
A: Its IC90 is 1.25 µM.

Q: Which results are given for `COc1ccc(-c2nsc(SCC(=O)Nc3ccccn3)n2)cc1` [Compound I-20]?
A: IC50 (M. tuberculosis; [9]): 0.502 µM; IC90 (M. tuberculosis; [10]): 2.5 µM

Q: With `O=C(CSc1nc(-c2ccccc2)ns1)NC1CCCC1` [Compound I-5] as the molecule, how does the IC50 (M. tuberculosis) read?
A: The IC50 was 0.256 µM.

Q: What about the IC90 (M. tuberculosis) of the same molecule?
A: Its IC90 is 0.63 µM.

Q: And the “increase of activity as compared to compound I-12” value (M. tuberculosis)?
A: The value was “two-fold”.

Q: And the “concentration required to reduce the bacterial load below the initial amount on day 0” value (M. tuberculosis H37Rv WT)?
A: Its value is 10 µM.

Q: And the “concentration with significant decrease of bacterial load as compared to the DMSO control” value (“concentration with significant decrease” for short) (M. tuberculosis H37Rv WT)?
A: The value was 3 µM.

Q: And the “Half-life” value [1]?
A: The value was 70.8 min.

Q: And the “Compound remaining (%)” value [1]?
A: The value was 75%.

Q: And the CLint scaled at 15 μM (in vitro)?
A: Its CLint scaled at 15 μM is 8.78 mL/min/kg.

Q: Which IC50 (M. tuberculosis; [9]) does the source give for `C#CCNC(=O)CSc1nc(-c2ccc(OC)cc2)ns1` [Compound I-7] here?
A: Its IC50 is 0.306 µM.

Q: What about the IC90 (M. tuberculosis; [10]) of the same molecule?
A: Its IC90 is 0.63 µM.

Q: For `CCCNC(=O)COc1nc(-c2ccccc2)ns1` [Compound I-42], which IC50 (M. tuberculosis; [9]) is on record?
A: The IC50 was over 10 µM.

Q: And the IC90 (M. tuberculosis; [10])?
A: The IC90 was over 10 µM.

Q: Which IC50 (M. tuberculosis; [9]) does the source give for `COc1ccc(-c2nsc(SCC(=O)NC(C)(C)C)n2)cc1` [Compound I-32] here?
A: The IC50 was 0.109 µM.

Q: What about the IC90 (M. tuberculosis; [10]) of the same molecule?
A: Its IC90 is over 10 µM.

Q: With `COc1ccc(-c2nsc(SCC(=O)NC3CCCC3)n2)cc1` [Compound I-12] as the molecule, how does the IC50 (M. tuberculosis; [8]) read?
A: Its IC50 is 0.535 µM.

Q: What about the IC90 (M. tuberculosis; Mycobacterium tuberculosis) of the same molecule?
A: The IC90 was 1.25 µM.

Q: And the “susceptibility (REMA)” value (M. tuberculosis; tested up to 80 μM)?
A: Its value is “susceptible”.

Q: What about the “ESX-5 activity, % of the DMSO treated control” value [2] of the same molecule?
A: The value was 27%.

Q: What about the “increase of MIC towards M. marinum when mspA was over-produced” value (M. marinum) of the same molecule?
A: The value was 2 fold.

Q: What about the “more compound required to significantly reduce viability when mspA was over-produced” value (M. marinum) of the same molecule?
A: The value was 4 fold.

Q: What about the “reduction in bacterial viability (REMA)” value (M. marinum) of the same molecule?
A: The value was 77%.

Q: What about the “susceptibility (REMA)” value (M. marinum) of the same molecule?
A: The value was “susceptible”.

Q: And the “concentration at which reduction of ESX-5 substrates EsxN and PE_PGRS proteins was observed” value [3]?
A: Its value is 10 µM.

Q: What about the “secretion of EsxA” value [4] of the same molecule?
A: Its value is “reduced secretion of EsxA”.

Q: And the “concentration required to reduce the bacterial load below the initial amount on day 0” value (M. tuberculosis H37Rv WT)?
A: The value was 10 µM.

Q: And the “concentration with significant decrease” value (M. tuberculosis H37Rv WT)?
A: The value was 3 µM.

Q: What about the “susceptibility (REMA)” value (M. avium) of the same molecule?
A: Its value is “resistant”.

Q: And the “susceptibility (REMA)” value (M. interjectum)?
A: Its value is “resistant”.

Q: What about the “susceptibility (REMA)” value (M. kansasii) of the same molecule?
A: Its value is “susceptible”.

Q: What about the “susceptibility (REMA)” value (M. bovis (BCG)) of the same molecule?
A: The value was “susceptible”.

Q: And the “susceptibility (REMA)” value [5]?
A: Its value is “resistant”.

Q: And the “susceptibility (REMA)” value (Escherichia coli)?
A: The value was “resistant”.

Q: And the “susceptibility (REMA)” value (Bacillus subtilis)?
A: Its value is “resistant”.

Q: What about the “increased susceptibility as compared to the parent WT strain” value [6] of the same molecule?
A: The value was “at least 4 fold”.

Q: And the “susceptibility on overexpression of ethA” value [7]?
A: Its value is “did not render this strain susceptible”.

Q: Which results are given for `COc1cccc(-c2nsc(SCC(=O)NC3CCCC3)n2)c1` [Compound I-8]?
A: IC50 (M. tuberculosis; [9]): 0.076 µM; IC90 (M. tuberculosis; [10]): 1.25 µM

Q: Which “growth of M. tuberculosis” value (M. tuberculosis; 10 μM) does the source give for `O=C(CSc1nc(-c2ccccc2)no1)NC1CCCC1` [Compound I-31] here?
A: Its value is “inhibited growth”.

Q: What about the IC50 (M. tuberculosis) of the same molecule?
A: Its IC50 is 2.71 µM.

Q: And the IC90 (M. tuberculosis)?
A: Its IC90 is 10 µM.

Q: With `COc1ccc(-c2nsc(SCC(=O)NC3CC3)n2)cc1` [Compound I-13] as the molecule, how does the IC50 (M. tuberculosis; [9]) read?
A: Its IC50 is 0.478 µM.

Q: And the IC90 (M. tuberculosis; [10])?
A: Its IC90 is 1.25 µM.

Q: Which IC50 (M. tuberculosis; [9]) does the source give for `CCCNC(=O)CSc1nc(-c2ccccc2)ns1` [Compound I-1] here?
A: The IC50 was 0.083 µM.

Q: What about the IC90 (M. tuberculosis; [10]) of the same molecule?
A: Its IC90 is 0.16 µM.

Q: And the “increase of activity as compared to compound I-12” value (M. tuberculosis)?
A: Its value is “eight-fold”.

Q: And the “activity compared with Ethambutol (EMB)” value (M. tuberculosis H37Rv WT; 10 μM)?
A: Its value is “as active as EMB”.

Q: What about the “activity compared with Streptomycin (STR)” value (M. tuberculosis H37Rv WT; 10 μM) of the same molecule?
A: Its value is “higher activity than STR”.

Q: What about the “reduction of bacteria as compared to the DMSO control” value (M. tuberculosis H37Rv WT; 10 μM) of the same molecule?
A: The value was “approximately 100 fold”.

Q: And the “concentration with significant decrease” value (M. tuberculosis H37Rv WT)?
A: Its value is 1 µM.

Q: And the “Half-life” value [1]?
A: The value was 45.6 min.

Q: And the “Compound remaining (%)” value [1]?
A: Its value is 64%.

Q: And the CLint scaled at 15 μM (in vitro)?
A: The CLint scaled at 15 μM was 13.6 mL/min/kg.

Q: With `COc1ccc(-c2nsc(SCC(=O)NC3CCCCC3)n2)cc1` [Compound I-22] as the molecule, how does the IC50 (M. tuberculosis; [9]) read?
A: The IC50 was 0.663 µM.

Q: What about the IC90 (M. tuberculosis; [10]) of the same molecule?
A: The IC90 was 2.5 µM.

Q: Which IC50 (M. tuberculosis; [8]) does the source give for `C=CCNC(=O)CSc1nc(-c2ccc(OC)cc2)ns1` [Compound I-6] here?
A: Its IC50 is 0.291 µM.

Q: And the IC90 (M. tuberculosis; Mycobacterium tuberculosis)?
A: Its IC90 is 0.63 µM.

Q: Which results are given for `Cc1cccc(-c2nsc(SCC(=O)NCC3CCCO3)n2)c1` (stereo not shown) [Compound I-39, reference compound]?
A: IC50 (M. tuberculosis; [8]): 0.248 µM; IC90 (M. tuberculosis; Mycobacterium tuberculosis): 0.63 µM; toxicity (survival of zebra fish embryos scored by heartbeat) (zebrafish embryos): least toxic of the comparative compounds

Q: For `O=C(CSc1nc(-c2ccncc2)ns1)NC1CCCC1` [Compound I-23], which IC50 (M. tuberculosis; [9]) is on record?
A: The IC50 was 0.762 µM.

Q: And the IC90 (M. tuberculosis; [10])?
A: The IC90 was 2.5 µM.

Q: Which IC50 (M. tuberculosis; [9]) does the source give for `O=C(CSc1nc(-c2ccccc2)ns1)NC1CCCC1` [Compound I-26] here?
A: The IC50 was 1.17 µM.

Q: What about the IC90 (M. tuberculosis; [10]) of the same molecule?
A: Its IC90 is 5 µM.

Q: With `COc1ccc(-c2nsc(SCC(=O)Nc3ccccc3)n2)cc1` [Compound I-21] as the molecule, how does the IC50 (M. tuberculosis; [9]) read?
A: Its IC50 is 0.559 µM.

Q: What about the IC90 (M. tuberculosis; [10]) of the same molecule?
A: Its IC90 is 2.5 µM.

Q: Which results are given for `CCOC(=O)CNC(=O)CSc1nc(-c2cccc(C)c2)ns1` [Compound I-40, reference compound]?
A: IC50 (M. tuberculosis; [8]): 0.169 µM; IC90 (M. tuberculosis; Mycobacterium tuberculosis): 0.31 µM; toxicity (survival of zebra fish embryos scored by heartbeat) (zebrafish embryos): toxic
